Measured values published in patent US20160333019A1, “SYNTHESIS AND FORMULATIONS OF PORPHYRIN COMPOUNDS” (Aeolus Sciences, Inc., priority 2013, published 2016).

Experiment: Study 5: 75 mg/mL Formula (VI) in WFI at various pH under ICH storage temperatures
Format: physicochemical
Details: for pH change: 75 mg/mL at pH 6
Method: It was noticeable from Study 2 that drug stability was dependent on the pH. The lower the pH, the greater the chemical stability. […] An accelerated 60° C. storage temperature was also accessed in order to compare and generate a pH-stability profile of drug in water.
(§1) About 10 g of WFI was placed in the container including a stir bar. […] The pH was measured and the solution was mixed at room temperature for 16-24 hours. At the end of the 16-24 hour hold/mix, the pH of solution was adjusted to pH 4.0 with either HCl or NaOH and mixed for about 15 minutes. The solution was filtered through a PVDF, 0.22 μm filter by discarding about 1 mL prior to placing about 4-5 mL into each of four separate clean containers (A, B, C, D). The pH of the samples was then measured. Solution A was stored at 2-8° C., solution B at 25° C., solution C at 30° C. and solution D at 40° C. A sample was removed from each container after 3, 7 and 14 days the pH measured.
as §1, with “5.0” for “4.0”
as §1, with “6.0” for “4.0”

[1] = 75 mg/mL, 60° C. for 14 days, within pH profile range 4.1-6.5

- pH variation (75 mg/mL at pH 4 and 5, all storage conditions, after 14 days): ≤ 0.1 pH unit
- pH decrease (75 mg/mL at pH 5, 60° C., after 14 days): ~0.2 pH units
- pH change (2-8° C., after 14 days): 0.7 pH units
- pH change (25° C., after 14 days): 0.5 pH units
- pH change (40° C., after 14 days): −0.1 pH units
- pH change (60° C., after 14 days): −0.9 pH units
- change of purity assays (75 mg/mL in water, samples at pH between 4.1 and 6.8, after 14 days): No significant changes
- decrease in drug purity assay (75 mg/mL, 60° C. for 14 days, increase of pH between 4.1 and 6.5): ~5%
- increase of degradant at RRT 1.56-1.62 [1]: ~8 folds
- level of degradant at RRT 1.56-1.62 [1]: 0.4-3.2%
- decrease of purity assay (60° C. samples, between pH 4.1 and 5.2): ~3%
- osmolality (pH 4 sample, 60° C. storage): 292 mOsm/kg
- osmolality (pH 4 samples, 2-8, 25 and 40° C., after 14 days): 277-280 mOsm/kg
- osmolality (pH 5 sample, 60° C. storage): 302 mOsm/kg
- osmolality (pH 5 samples, 2-8, 25 and 40° C., after 14 days): 273-275 mOsm/kg
- osmolality (pH 6 sample, 60° C. storage): 283 mOsm/kg
- osmolality (pH 6 samples, 2-8, 25 and 40° C., after 14 days): 269-272 mOsm/kg
Substance: [5,10,15,20-tetrakis(1,3-diethylimidazolium-2-yl)porphyrinato]manganese(III) chloride hydrate complex [Formula (VI)]
